# Results taken from article PMC3975964, “Protective effect of a sesamin derivative, 3-bis (3-methoxybenzyl) butane-1, 4-diol on ischemic and hypoxic neuronal injury” (Journal of Biomedical Science, 2014).
# Key:
# [1] = PAMPA-BBB, known value; no reference given; cited from earlier work
# [2] = PAMPA-BBB membrane permeability assay
# Procedure: The blood–brain barrier limits drug access into the brain, due to tight junctions, membrane drug transporters, and unique lipid composition. Porcine whole-brain lipid is successfully used in passive permeability test for CNS drugs.
# The parallel artificial membrane permeation assay (PAMPA) was carried out in a sandwich-like 96-well PAMPA plate formed by a top filter plate containing acceptor wells and a bottom plate containing donor wells. Each composite well was divided into two chambers: 300 μl of donor solution (test article or QC standards) at the bottom and 200 μl of acceptor buffer (PBS buffer containing 5% DMSO) at the top, separated by a polyvinylidene fluoride (PVDF, 0.45 μm pore size) membrane, coated with 4 μl of 20 mg/ml porcine polar brain lipid (PBL) in n-dodecane. […] The final DMSO concentration in working stock solution is 5%. Each compound was performed in triplicate. The test compound diffused from the donor well through the lipid membrane and into the acceptor well. The sandwich plate was placed with the plate lid and incubated at room temperature for approximately 18 h. After reaching diffusion equilibration, the PAMPA sandwich plate was disassembled and the concentration of drug in the acceptor, the donor, and the reference wells was determined using a TECAN microplate reader (Durham, NC, USA).
# JNK [3] = test: Western blot of hypoxia-induced signaling, PC12: JNK; type: cell-based, rat; settings: PC12 cells, 10 min hypoxia (Figure 5C), BBD 20 μM
# Procedure: (§1) On the day of experiment, culture media were replaced with glucose-free DMEM, then, gassed with 85% N2, 10% H2, and 5% CO2 for various time periods in the absence or presence of various doses of BBD.
# (§2) Samples containing 25 μg of protein were separated on 12.5% (w/v) sodium dodecyl sulfate-polyacrylamide gels, and transferred to immobilon polyvinylidenedifluoride membranes (Millipore, Bedford, USA). The membranes were incubated for 2 h with 5% (w/v) dry skim milk in TBST buffer to block non-specific binding, then ERK, p38 JNK, AKT-1, COX-2, caspase-3, β-actin proteins for neuron cells were detected by a chemiluminescence detection system according to the manufacturer’s instructions (ECL, Amersham, Berkshire, UK).
# PC12 cells [4] = test: LDH release under hypoxia, PC12; type: cell-based, rat; settings: BBD 1, 10, 20 μM
# Procedure: (§3) Murine BV-2 microglial cell line was maintained in DMEM supplemented with 10% (v/v) FBS, 100 U/ml penicillin and 100 μg/ml streptomycin (P/S) in a humidified incubator under 5% CO2 at 37°C. Rat pheochromacytoma PC12 cell line was maintained in DMEM supplemented with 10% FBS, 5% horse serum, P/S at 37°C under 5% CO2. Confluent cultures were passaged by trypsinization. In all experiments, the cells were treated with BBD immediately before hypoxia. BBD was dissolved in DMSO. The final concentration of DMSO added to cells never exceeded 0.1% (v/v).
# as §1
# (§4) Cytotoxicity was determined by measuring the release of LDH. PC12 or BV-2 cells treated with various concentrations of BBD were stressed with hypoxia for one hour and the supernatant was then assayed for LDH activity. An absorbance was read at 490/630 nm using a spectraMAX 340 microtiter plate reader. Data were expressed as the mean percent of viable cells vs. the control.
# neurons = test: Toxicity of BBD alone to neurons; type: cell-based; settings: BBD 100 μM alone, data not shown
# Caspase-3 = test: Western blot of hypoxia-induced signaling, BV-2: Caspase-3; type: cell-based, murine; settings: BV-2 cells, 10 min hypoxia, BBD 20 μM
# Procedure: as §1, §2
# focal cerebral ischemia = test: Focal cerebral ischemia (MCAO), infarct size by TTC staining; type: in vivo, Sprague–Dawley rats; settings: SD rats, BBD 10 mg/kg i.p. 90 min after MCAO; ischemia group 16.1%
# Procedure: (§5) Twenty-four male Sprague-Dawley (SD) rats (200~250 gm) were purchased from National Animal Center, Taipei, Taiwan and randomly divided into the control (normal saline), and BBD groups. The experiment was approved by Institutional Animal Care and Use Committee, Taichung Veterans General Hospital (IACUC LA-97490). Rats were injected intraperitoneally (i.p.) with BBD (10 mg/kg) 90 min after MACO experiment. Each SD rat was anesthetized with chlorohydrate (400 mg/kg) i.p. and its body temperature was maintained at 37°C with a heating pad (CMA/150). A midline neck incision was made and the right carotid artery was exposed and separated from the vago-sympathetic trunk. The right carotid artery was loosely encircled with a 4-O suture for later occlusion. The SD rat's head was placed in a stereotaxic frame (David Kopf, CA, USA) with the nose bar positioned 4.0 mm below the horizontal line. Following a midline incision, the skull was partially removed to expose the right middle cerebral artery. The middle cerebral artery was loosely encircled with an 8-O suture for later occlusion. A focal cerebral ischemia was induced by occlusion of the right common carotid artery and the right cerebral artery (MCAO) for 60 min, followed by reperfusion. […]
# JNK [5] = test: Western blot of hypoxia-induced signaling, BV-2: JNK; type: cell-based, murine; settings: BV-2 cells, 10 min hypoxia, BBD 20 μM
# Procedure: as §1, §2
# COX-2 [6] = test: Western blot of hypoxia-induced signaling, BV-2: COX-2; type: cell-based, murine; settings: BV-2 cells, 10 min hypoxia, BBD 20 μM
# Procedure: as §1, §2
# COX-2 [7] = test: Western blot of hypoxia-induced signaling, PC12: COX-2; type: cell-based, rat; settings: PC12 cells, 10 min hypoxia (Figure 5C), BBD 20 μM
# Procedure: as §1, §2
# PGE2 = test: Hypoxia-induced PGE2 release (ELISA), BV-2; type: cell-based, murine; settings: BV-2 cells, hypoxia 30 min, BBD 10 and 20 μM
# Procedure: as §1
# (§6) Cytokines (IL-1β, IL-6) and PGE2 were measured using ELISA kits (R&D, Minneapolis, MN, USA). The absorbance at 450 nm was determined using a microplate reader (spectraMAX 340).
# MDA in PC12 cells = test: Lipid peroxidation (MDA) under hypoxia, PC12; type: cell-based, rat; settings: hypoxia 30 min, BBD 1, 10, 20 μM
# Description: as §1
# (§7) Lipid peroxidation is quantified by measuring malondialdehyde (MDA) of PC12 cells and brain tissue of SD rats by lipid peroxidation (LPO) assay kit (Cayman). This kit works on the principle of condensation of one molecule of either MDA or 4-hydroxyalkenals with two molecules of N-methyl-2-phenylindole to yield a stable chromophore. MDA levels were assayed by measuring the amount expressed in 5 × 10^5 cells of PC12 and SD brain tissue, and the absorbance at 500 nm was determined using a microplate reader (spectraMAX 340).
# ERK [8] = test: Western blot of hypoxia-induced signaling, BV-2: ERK; type: cell-based, murine; settings: BV-2 cells, 10 min hypoxia, BBD 20 μM
# Procedure: as §1, §2
# BV-2 cells [9] = test: MTT cell viability under hypoxia, BV-2; type: cell-based, murine; settings: hypoxia 30 min, BBD 1, 10, 20 μM
# Procedure: as §3, §1
# (§8) Cell viability was measured using blue formazan that was metabolized from colorless 3-(4,5-dimethyl-thiazol-2-yl)-2,5-diphenyl tetrazolium bromide (MTT) by mitochondrial dehydrogenases, which are active only in live cells. PC12 or BV2 cells were preincubated in 24-well plates at a density of 5 × 10^5 cells per well for 24 h. […] One hour later, 200 μl of solubilization solution were added to each well and absorption values read at 540 nm on microtiter plate reader (spectraMAX 340, Molecular Devices, Sunnyvale, CA, USA). Data were expressed as the mean percent of viable cells vs. control.
# p38 [10] = test: Western blot of hypoxia-induced signaling, PC12: p38; type: cell-based, rat; settings: PC12 cells, 10 min hypoxia (Figure 5C), BBD 20 μM
# Procedure: as §1, §2
# PC12 cells [11] = test: MTT cell viability under hypoxia, PC12; type: cell-based, rat; settings: hypoxia 30 min, BBD 1 to 20 μM
# Procedure: as §3, §1, §8
# ERK [12] = test: Western blot of hypoxia-induced signaling, PC12: ERK; type: cell-based, rat; settings: PC12 cells, 10 min hypoxia (Figure 5C), BBD 20 μM
# Procedure: as §1, §2
# ROS in PC12 cells = test: Hypoxia-induced ROS generation (DCF), PC12; type: cell-based, rat; settings: hypoxia 30 min, BBD 1, 10, 20 μM
# Procedure: as §1
# Intracellular accumulation of ROS was determined using H2DCF-DA, which is a nonfluorescent compound that accumulates in cells following deacetylation. H2DCF then reacts with ROS to form fluorescent dichlorofluorescein (DCF). PC12 cells were plated in 96-well plates and grown for 24 h before addition of DMEM plus 10 μM H2DCF-DA, incubated for 60 min at 37°C, and treated with various concentrations of BBD for hypoxia 30 min. Cells were then washed twice at room temperature with Hank’s balanced salt solution (HBSS without phenol red). Cellular fluorescence was monitored on a Fluoroskan Ascent fluorometer (Labsystems Oy, Helsinki, Finland) using an excitation wavelength of 485 nm and emission wavelength of 538 nm.
# IL-6 = test: Hypoxia-induced IL-6 production (ELISA), BV-2; type: cell-based, murine
# Procedure: as §1, §6
# IL-1 = test: Hypoxia-induced IL-1 production (ELISA), BV-2; type: cell-based, murine
# Procedure: as §1, §6
# [13] = tested on: superoxide dismutase (SOD) activity; test: SOD activity of ischemic brain; type: in vivo, Sprague–Dawley rats; settings: SD rat brain, BBD 10 mg/kg i.p. 90 min after MCAO
# Procedure: as §5, with “Sprague–Dawley” for “Sprague-Dawley”, “rat’s” for “rat's”
# Superoxide dismutase (SOD) activity was determined by a Superoxide Dismutase assay kit (Cayman, Ann Arbor, MI, USA). […]
# MDA in BV-2 cells = test: Lipid peroxidation (MDA) under hypoxia, BV-2; type: cell-based, murine; settings: hypoxia 30 min, BBD 1, 10, 20 μM
# p38 [14] = test: Western blot of hypoxia-induced signaling, BV-2: p38; type: cell-based, murine; settings: BV-2 cells, 10 min hypoxia, BBD 20 μM
# Procedure: as §1, §2
# ROS in BV-2 cells = test: Hypoxia-induced ROS generation (DCF), BV-2; type: cell-based, murine
# AKT-1 = test: Western blot of hypoxia-induced signaling, BV-2: AKT-1; type: cell-based, murine; settings: BV-2 cells, 10 min hypoxia, BBD 20 μM
# Procedure: as §1, §2
# BV-2 cells [15] = test: LDH release under hypoxia, BV-2; type: cell-based, murine; settings: BBD 1, 10, 20 μM
# Procedure: as §3, §1, §4
# [16] = tested on: malondialdehyde (MDA) of brain tissue; test: Lipid peroxidation (MDA) of ischemic brain tissue; type: in vivo, Sprague–Dawley rats; settings: SD rat brain, BBD 10 mg/kg i.p. 90 min after MCAO
# Procedure: as §5, with “Sprague–Dawley” for “Sprague-Dawley”, “rat’s” for “rat's”, “artery.” for “artery. The middle cerebral artery was loosely encircled with an 8-O suture for later occlusion. A focal cerebral ischemia was induced by occlusion of the right common carotid artery and the right cerebral artery (MCAO) for 60 min, followed by reperfusion.”
# as §7, with “This kit works on the principle of condensation of one molecule of either MDA or 4-hydroxyalkenals with two molecules of N-methyl-2-phenylindole to yield a stable chromophore.” left out
# [17] = BV-2 cells, hypoxia 30 min, BBD 1, 10, 20 μM
# [18] = hypoxia, concentration not given
structure (smiles),measurement,setting,value
"Cn1c(=O)c2[nH]cnc2n(C)c1=O [Theophylline, theophylline]",Known Pe,[1],0.12 ~ 0.18 10^ -6 cm/s
"c1cc2c(cc1[C@H]1OC[C@H]3[C@@H]1CO[C@@H]3c1ccc3c(c1)OCO3)OCO2 [Sesamin, sesamin]",Pe,"[2]; pig, PAMPA, 100 μg/ml, pH 7.4",0.00 ± 0.01 10^ -6 cm/s
"COc1cccc(CC(CO)C(CO)Cc2cccc(OC)c2)c1 (stereo not shown) [BBD, 3-bis (3-methoxybenzyl) butane-1,4-diol]",suppressed hypoxia induced expression of JNK,JNK [3],86 ± 5%
same,hypoxia-induced LDH release,PC12 cells [4],decreased
same,toxicity to neurons,neurons,not toxic
same,reduced expression of Caspase-3,Caspase-3,50 ± 7%
same,infarct size,focal cerebral ischemia,4.9%
same,reduced expression of JNK,JNK [5],88 ± 6%
same,reduced expression of COX-2,COX-2 [6],13 ± 7%
same,suppressed hypoxia induced expression of COX-2,COX-2 [7],75 ± 11%
same,hypoxia-induced PGE2 release,PGE2,decreased PGE2 release from BV-2 cells significantly
same,hypoxia-induced increase in MDA level,MDA in PC12 cells,suppressed
same,reduced expression of ERK,ERK [8],10 ± 7%
same,cell viability (MTT) under hypoxia,BV-2 cells [9],increased
same,suppressed hypoxia induced expression of p38,p38 [10],-10 ± 9%
same,cell viability (MTT) under hypoxia,PC12 cells [11],preserved
same,suppressed hypoxia induced expression of ERK,ERK [12],9 ± 7%
same,hypoxia-induced ROS accumulation (DCF signal),ROS in PC12 cells,decreasing the ROS accumulation
same,hypoxia-induced IL-6 production,IL-6; [17],dose-dependently decreased
same,inhibition of hypoxia-induced IL-6 production,IL-6; [18],40-50%
same,hypoxia-induced IL-1 production,IL-1; [17],dose-dependently decreased
same,inhibition of hypoxia-induced IL-1 production,IL-1; [18],40-50%
same,increase of SOD activity as compared to the ischemia group,[13],24%
same,SOD activity,[13]; ischemia group 68 μ/mL,84 μ/mL
same,hypoxia-induced increase in MDA level,MDA in BV-2 cells,suppressed
same,reduced expression of p38,p38 [14],-8 ± 10%
same,hypoxia-induced ROS accumulation (DCF signal),ROS in BV-2 cells; [17],decreasing the ROS accumulation
same,inhibition of hypoxia-induced ROS production,"ROS in BV-2 cells; hypoxia, cell line and concentration not stated",40-50%
same,Classification,[2]; PAMPA-BBB predicted BBB permeation class,BBB+ (BBB + compound (high BBB permeation predicted): Pe (10^-6 cm s^-1) > 4.0)
same,Papp at 100 μg/ml,"[2]; pig, PAMPA, pH 7.4",20.9 ± 3.05 ×10⁻⁶ cm/s
same,reduced expression of AKT-1,AKT-1,45 ± 6%
same,hypoxia-induced LDH release,BV-2 cells [15],reduced
same,decrease of MDA level as compared to the ischemia group,[16],6%
same,MDA level,[16]; ischemia group 83 μM,78 µM
